In a melting point compilation (Tetko et al.; mined from patent text by program, amines drawn as free bases though some values may be those of a salt):

melting point [°C]	Structure (SMILES)
92 to 94	CCCCCCCCCCCCCCOc1cc(OCCCCCCc2cccc(O)c2O)cc(C(=O)O)c1
149 to 151	O=C(NCC(C=C1CCCCC1[N+](=O)[O-])=NO)c1cccnc1 (centres undefined)
171 to 173	O=C(NO)c1ccccc1Nc1c(Cl)cccc1Cl
169 to 170	O=C1N(Cc2nc(C(F)(F)F)cs2)c2ccccc2C12COc1cc3c(cc12)OCCO3 (centres undefined)
130 to 133	COC(=O)[C@H]1CC[C@@H](C(=O)O)CN1S(C)(=O)=O (racemic)
230	COc1ccc(-c2nc3ccc(O)cc3[nH]2)cc1C12CC3CC(CC(C3)C1)C2
> 290	O=C1C(c2c[nH]c3ccccc23)=C(c2c[nH]c3ccccc23)C(=O)N1Cc1ccccc1
112	CC(=O)Nc1cccc2c1C(=O)OC2C (centres undefined)
118 to 120	CC(C)(O)c1ccc(CNC(=O)c2cccnc2Oc2ccc3c(c2)OCO3)cc1
> 250	Cc1cc(-c2ccc(C(F)(F)F)cc2)cc(-c2cccc(-c3csc(N)n3)c2)n1
70	C=CCc1cc(C#N)ccc1O
83 to 85	CC(C)(C)n1nnc(-c2ccccc2-c2cccc3ccccc23)n1
183 to 186	C=Cc1cc(Cl)cc2c1OC(C(F)(F)F)C(C(=O)O)=C2 (centres undefined)
181 to 183	COC(=O)c1ccc2c(c1)C(=O)C(=Cc1ccc(OC)c(OC)c1OC)O2
68 to 70	CCCCCCCCOC(=O)CCc1cc(C(C)(C)C)c2oc(-c3ccc(-c4nc5cc(CCC(=O)OCCCCCCCC)cc(C(C)(C)C)c5o4)s3)nc2c1
96 to 98	CCOC(=O)c1c(CN(CC)CC)nc2sc3c(c2c1-c1ccc(OC)c(OC)c1)CCN(C(=O)c1ccc(Cl)cc1)C3
186 to 187	CCOC(=O)NNc1cc(C)c(-c2cccc([N+](=O)[O-])c2)nn1
101 to 102	O=C1Nc2ccccc2SC1CCCCO (centres undefined)
193 to 196	Cc1cc(C2=NN(C(=S)Cl)[C@H](C)Cc3cc4c(cc32)OCO4)ccc1[N+](=O)[O-]
61 to 64	CCCCCCCCCCCCCCCCCCOc1ccc(C(=O)OC)c(O)c1
128 to 129	C=CCN(C(C)c1ccccc1)S(=O)(=O)c1ccc(O)cc1 (centres undefined)
201 to 202	Oc1cccc(-c2nc3n(n2)CCc2ccccc2-3)c1
68 to 74	CCCCCCCCCCCCCCCCCCOc1cc(N(CC(=O)OC)CC(=O)OC)cc([N+](=O)[O-])c1
179 to 180	Cn1c(COc2ccc(CC3SC(=O)NC3=O)cc2)nc2ccc(Oc3ccc(NC(=O)Nc4ccc(C(F)(F)F)cc4)cc3)cc21 (centres undefined)

melting point [°C]	Structure (SMILES)
196 to 198	CCCNC(Nc1cc(C(F)(F)F)cc(C(F)(F)F)c1)=C(C#N)S(=O)(=O)c1ccc(Cl)cc1
120 to 121	CCn1cc(-c2cnccn2)ccc1=O
67	COc1ccc2oc(Cc3cccc(F)c3)c(CC#N)c2c1
123 to 125	N#Cc1cccc(CSCCNC(=O)c2c(Cl)cccc2Cl)c1
265	CC(C)(C)OC(=O)Cn1c(C(=O)O)cc2cnccc21
124 to 125	Cc1ccc(C2c3c(C)c(NC(=O)OC(C)(C)C)c(C)c(C)c3OC2(C)C)cc1 (centres undefined)
200 to 204	COCc1c(N2CCN(C)CC2)c(F)cc2c(=O)c(C(=O)OC)cn(C3CC3)c12
56 to 57	COc1c(C)cnc(C(Br)C#N)c1C (centres undefined)
228 to 230	CCc1cccc(CC)c1NC(=O)CC1c2ccccc2Oc2ccccc21
60	C[C@@H]1NC(=O)OC1(C)C
273 to 276	Cn1cnc2nc(NC(=O)c3ccccc3)nn2c1=S
118 to 120	CC(=O)NC1CCNC(c2ncccc2Cl)C1 (centres undefined)
145 to 146	O=[N+]([O-])c1ccc(Nc2ccc(C(F)(F)C(F)(F)C(F)(F)C(F)(F)C(F)(F)C(F)(F)F)cc2)c([N+](=O)[O-])c1
188 to 189	CC(c1ccncc1F)C(O)(Cn1cncn1)c1ccc(F)cc1F (centres undefined)
222 to 225	O=C1CCN(c2nc(=O)c3cccnc3s2)CC1
163	O=C(Nc1ccccc1)O[C@@H]1CN=C(c2ccc3ccccc3c2)O[C@H]1c1ccccc1 (racemic)
91 to 92	COc1cc2c(cc1Cl)CCN(C)C[C@H]2c1ccccc1
265 to 300	Cc1[nH]c(=O)c(C(F)(F)C(F)(F)F)c2c1CC(c1ccncc1)CC2 (centres undefined)
91 to 93	CCOC(=O)c1cc(OCC)c(OC(C)C)cc1N
171 to 172	O=[N+]([O-])c1ccc(S(=O)(=O)OS(=O)(=O)c2ccc([N+](=O)[O-])cc2)cc1
163	Cc1nc(C(C)c2ccccc2)c2c(c1O)COC2 (centres undefined)
123 to 124	O=C(Nc1ccc(Br)c(C(F)(F)F)c1)c1ccccc1NCc1ccncc1
205 to 210	Cc1cscc1NC(=S)NC1CCCCC1N (centres undefined)
184 to 185	N#CCc1c[nH]c2ccc(CS(N)(=O)=O)cc12

melting point [°C]	Structure (SMILES)
126	COc1c(CBr)c(OC)c(CBr)c(OC)c1CBr
200 to 202	O=C(O)c1ccc(-c2nn(Cc3ccccc3)c3ccccc23)o1
222 to 223	O=C(O)c1cn(-c2cnsn2)c2nc(Cl)c(F)cc2c1=O
114	COc1ccc(Nc2nc(Cl)nc(OCC3CCCCC3)n2)cc1Cl
164	CN(C)C(=O)Nc1cc(Cl)ccc1O
90 to 94	Nc1ccnn1-c1c(Cl)cc(C(F)(F)F)cc1Cl
122	CCC(c1ccc(NC(=O)Cc2ccccc2C)c([N+](=O)[O-])c1)n1ccnc1 (centres undefined)
73	CCCCCc1ccc(-c2ccc(CCC3(C#N)CCCC(C)C3)cc2)cc1 (centres undefined)
54 to 55	Clc1ccc2c(c1)CSCCCN2
154 to 159	CC1=C(c2ccccc2)C(=O)N(C(C)(C)c2cc(Cl)c(F)c(Cl)c2)CC1
123 to 124	CC(C)OC(=O)c1cnn(-c2ccccn2)c1S(N)(=O)=O
168	CC(=O)N[C@@H](C)COc1ccc2nc(-c3ccc(OCC4CC4)c(F)c3F)oc2c1F
240	CC(=O)Oc1cc(C(=O)O)cc(C(=O)O)c1
170 to 171	COC(=O)c1ccc(CCc2csc(NC(C)=O)n2)cc1
89 to 95	O=c1oc2c(c(O)c1C(c1ccccc1)C1CC1)CCCCCC2CC1CCCOC1 (centres undefined)
157 to 160	O=C1NC(c2ccccc2)Oc2ccccc21 (centres undefined)
110 to 114	N#CCOc1cccc(COc2ccc(OCc3ccc4ccccc4n3)cc2)c1
112 to 115	CN(C(=O)c1ccc2c(c1)nc(NC(=O)c1cccs1)n2CCCC(N)=O)C1CCCCC1
62	c1ccc(Oc2noc(-c3ccccc3)n2)cc1
105 to 108	CCCCCCCCCCCC1Cc2c(cccc2C(=O)O)N1 (racemic)
88 to 89	COc1ccc(Cl)cc1S(=O)(=O)N(C)c1ccccc1
220 to 221	CC1Cc2cc3c(cc2C(c2ccc([N+](=O)[O-])cc2)=NN1C1=NC(=O)CCS1)OCO3 (centres undefined)
189 to 191	c1ccc2c(c1)c(N1CCOCC1)nc1c(-c3nc(C4CC4)no3)ncn12
84 to 85	CC(C)(C=O)NC(=O)OC(C)(C)C

melting point [°C]	Structure (SMILES)
128 to 130	OC(Cn1cncn1)(c1ccc(F)cc1)C(F)(F)c1ccc(F)cc1 (centres undefined)
167 to 173	CN(Cc1ccc(CCC(=O)Nc2ccc(-c3ccc(Cl)cc3)cc2)cc1)C1CCOCC1
165 to 169	CC(O)c1cccc(-c2cc3c(=O)n(NS(C)(=O)=O)c(=O)[nH]c3cc2C(F)(F)F)c1 (centres undefined)
271 to 273	FC(F)c1nc2ccccc2n1-c1nc(Nc2cccnn2)nc(N2CCOCC2)n1
210 to 213	CCN(C=O)C1CCC(CNc2nc3c(s2)CCOc2ccccc2-3)CC1 (centres undefined)
147 to 148	CCCCn1c(=O)c(C(=O)OCC)c(O)c2ccccc21
236 to 237	CS(=O)(=O)NCCn1c(=O)c(-c2cccs2)nc2ccccc21
211 to 212	NCc1ccc(N2CC(C(=O)O)OC2=O)cc1 (centres undefined)
> 250	COc1ccc(NC(=O)N[C@H]2C[C@@](N)(C(=O)O)[C@@H]3[C@@H](C(=O)O)[C@@H]32)cc1 (relative stereo)
136	CC(=O)C(C)c1ccc2c(c1)Cc1cccnc1O2 (centres undefined)
151 to 153	CCOP(=O)(Cc1ccc2cc(CP(=O)(OCC)OCC)ccc2c1)OCC
121 to 122	Cc1ccccc1CC1CNC(=O)O1 (centres undefined)
111 to 112	CC(c1ccc(-c2ccccc2)c(F)c1)c1nc(CC#N)no1 (centres undefined)
168	CCOC(=O)COc1cccc2cc(S(N)(=O)=O)sc12
53 to 54	COc1cc(C)nc(-n2ccnc2)n1
154	CSc1ccc(-c2nn(Cc3ccc(Cl)cc3Cl)c(=S)cc2-c2ccc(F)cc2)cc1
233 to 235	O=C(c1cc(C(F)(F)F)cc(C(F)(F)F)c1)N1CCC2(CC1)C(=O)NCN2c1ccc(Cl)cc1
> 270	O=C(O)c1cn(-c2ccc(F)c([N+](=O)[O-])c2)c2nc(Cl)c(F)cc2c1=O
221 to 222	CCOC(=O)c1c(-c2ccc(F)cc2)c2nccnc2c(=O)n1C
71 to 72	CCOC(=O)C(O)(Cc1ccc2ccccc2n1)C(=O)OCC
204 to 206	N#CCc1ccc(NS(=O)(=O)c2ccc(N3CCNC3=O)cc2)cc1
230 to 231	O=C1CCC(C=Cc2ccc(-n3ccnc3)cc2)=NN1
146	COc1ccc(C#CC(O)c2cccc(CN(O)C(N)=O)c2)cc1OC (centres undefined)

Structure (SMILES)	melting point [°C]
N#CN=[N+]([O-])c1ccc2c(c1)OCO2	145 to 147
CCCCCn1c2ccc(C(=O)NC34CC5CC(CC(C5)C3)C4)cc2c2ccc(OC)cc21	141 to 142
O=C(COCC(=O)Nc1ccc([N+](=O)[O-])c(C(F)(F)F)c1)Nc1ccc([N+](=O)[O-])c(C(F)(F)F)c1	137 to 138
CN1CCN(Cc2ccc(Cl)nc2)C1=N[N+](=O)[O-]	165 to 167
